Where a name gives a salt, the structure may show the parent alone.
target: IRAK4 (Homo sapiens (Human), UniProt Q9NWZ3); assay: IRAK4 Kinase Assay; assay type: biochemical; settings: IMAP fluorescence polarization, 0.5 nM GST tagged IRAK4, 100 μM ATP, 30 minutes at 25° C.; read-out: IRAK4 IC50
Sequence (Q9NWZ3 whole entry): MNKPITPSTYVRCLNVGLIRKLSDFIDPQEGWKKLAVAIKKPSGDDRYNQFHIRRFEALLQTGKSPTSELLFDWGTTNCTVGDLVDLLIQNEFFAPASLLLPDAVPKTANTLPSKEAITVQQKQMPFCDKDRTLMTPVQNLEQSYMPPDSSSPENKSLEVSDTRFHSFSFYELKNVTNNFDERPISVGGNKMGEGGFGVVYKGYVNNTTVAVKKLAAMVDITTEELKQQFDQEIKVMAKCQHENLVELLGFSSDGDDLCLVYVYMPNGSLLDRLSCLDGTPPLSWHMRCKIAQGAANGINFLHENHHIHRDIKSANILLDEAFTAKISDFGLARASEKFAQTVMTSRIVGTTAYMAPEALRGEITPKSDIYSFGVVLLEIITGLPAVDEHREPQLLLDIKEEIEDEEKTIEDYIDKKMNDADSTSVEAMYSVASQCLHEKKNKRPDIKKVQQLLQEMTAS
Procedure: The kinase activity of IRAK4 is determined by its ability to catalyze the phosphorylation of a fluorescent polypeptide substrate. The extent of phosphorylation is measured using the IMAP technology (Molecular Devices) where the phosphorylated fluorescent substrate binds to the large M(III)-based nanoparticles which reduces the rotational speed of the substrate and thus increases its fluorescent polarization (FP).
20 μL reaction mixture contains 10 mM TriHCl, pH 7.2, 0.5 nM GST tagged IRAK4 (SignalChem), 100 nM fluorescent peptide substrate (RP7030, Molecular Devices), 100 μM ATP, 1 mM DDT, 1 mM MgCl2, and 0.01% Tween 20. The reaction is initiated by the addition of ATP. After incubation for 30 minutes at 25° C., 60 μL of Progressive IMAP Reagent (Molecular Devices) is added to stop the reaction. Change in RP7030's FP is determined by a FP reader (Analyst HT, LJL BioSystems).

IC50 [nM]	SMILES
60	Cn1cc(NC(=O)c2cnn3ccc(N4C[C@H]5CC[C@@H]4CN5)nc23)c(C#N)n1 (single isomer, unassigned) [Example 157, N-(3-cyano-1-methyl-1H-pyrazol-4-yl)-5-[(1S,4S)- or (1R,4R)-2,5-diazabicyclo[2.2.2]oct-2-yl]pyrazolo[1,5-a]pyrimidine-3-carboxamide trifluoroacetate]
72	Cn1cc(NC(=O)c2cnn3ccc(N4CCCNCC4)nc23)c(Br)n1 [Example 137, N-(3-bromo-1-methyl-1H-pyrazol-4-yl)-5-(1,4-diazepan-1-yl)pyrazolo[1,5-a]pyrimidine-3-carboxamide trifluoroacetate]
1	N[C@H]1CCCC[C@H]1Nc1ccn2ncc(C(=O)Nc3ccsc3Cl)c2n1 [Example 116, 5-{[(1R,2S)-2-aminocyclohexyl]amino}-N-(2-chlorothiophen-3-yl)pyrazolo[1,5-a]pyrimidine-3-carboxamide trifluoroacetate]
42	Cn1cc(NC(=O)c2cnn3ccc(N4CC5CCC4CN5)nc23)c(Br)n1 (stereo not drawn) [Example 140, N-(3-bromo-1-methyl-1H-pyrazol-4-yl)-5-(2,5-diazabicyclo[2.2.2]oct-2-yl)pyrazolo[1,5-a]pyrimidine-3-carboxamide trifluoroacetate]
244	N[C@@H]1[C@H](Nc2ccn3ncc(C(=O)Nc4cn(CC(F)F)nc4C(F)(F)F)c3n2)CCCC1(F)F [Example 66, 5-{[(1R,2R)-2-amino-3,3-difluorocyclohexyl]amino}-N-[1-(2,2-difluoroethyl)-3-(trifluoromethyl)-1H-pyrazol-4-yl]pyrazolo[1,5-a]pyrimidine-3-carboxamide trifluoroacetate]
626	CC(C)n1cc(NC(=O)c2cnn3ccc(N[C@@H]4CCCC(F)(F)[C@@H]4N)nc23)c(C(F)(F)F)n1 [Example 56, 5-{[(1R,2R)-2-amino-3,3-difluorocyclohexyl]amino}-N-[1-(1-methylethyl)-3-(trifluoromethyl)-1H-pyrazol-4-yl]pyrazolo[1,5-a]pyrimidine-3-carboxamide trifluoroacetate]
0.8	N[C@H]1CCCC[C@H]1Nc1ccn2ncc(C(=O)Nc3cn(CC(F)F)nc3C(F)(F)F)c2n1 [Example 292, 5-{[(1R,2S)-2-aminocyclohexyl]amino}-N-[1-(2,2-difluoroethyl)-3-(trifluoromethyl)-1H-pyrazol-4-yl]pyrazolo[1,5-a]pyrimidine-3-carboxamide trifluoroacetate]
521	O=C(Nc1ccccc1Cl)c1cnn2ccc(N3CC4CCC3CN4)nc12 (stereo not drawn) [Example 107, N-(2-chlorophenyl)-5-(2,5-diazabicyclo[2.2.2]oct-2-yl)pyrazolo[1,5-a]pyrimidine-3-carboxamide trifluoroacetate]
113	Cn1cc(NC(=O)c2cnn3ccc(N4CCCNCC4)nc23)c(Cl)n1 [Example 148, N-(3-chloro-1-methyl-1H-pyrazol-4-yl)-5-(1,4-diazepan-1-yl)pyrazolo[1,5-a]pyrimidine-3-carboxamide trifluoroacetate]
6060	O=C(Nc1ccccc1I)c1cnn2ccc(N3CC4CCC3CN4)nc12 (stereo not drawn) [Example 103, 5-(2,5-diazabicyclo[2.2.2]oct-2-yl)-N-(2-iodophenyl)pyrazolo[1,5-a]pyrimidine-3-carboxamide trifluoroacetate]
979	O=C(Nc1ccsc1C(F)(F)F)c1cnn2ccc(N3CC4CCC3CN4)nc12 (stereo not drawn) [Example 147, 5-(2,5-diazabicyclo[2.2.2]oct-2-yl)-N-[2-(trifluoromethyl)thiophen-3-yl]pyrazolo[1,5-a]pyrimidine-3-carboxamide trifluoroacetate]
44	Cn1cc(NC(=O)c2cnn3ccc(N4C[C@@H]5CC[C@H]4CN5)nc23)c(C(F)(F)F)n1 (single isomer, unassigned) [Example 78, 5-[(1S,4S)- or (1R,4R)-2,5-diazabicyclo[2.2.2]oct-2-yl]-N-[1-methyl-3-(trifluoromethyl)-1H-pyrazol-4-yl]pyrazolo[1,5-a]pyrimidine-3-carboxamide trifluoroacetate]

SMILES	IC50 [nM]
Cn1cc(NC(=O)c2cnn3ccc(N[C@@H]4CNC[C@@H](F)C4)nc23)c(C(F)(F)F)n1 [Example 255, 5-{[(3S,5S)-5-fluoropiperidin-3-yl]amino}-N-[1-methyl-3-(trifluoromethyl)-1H-pyrazol-4-yl]pyrazolo[1,5-a]pyrimidine-3-carboxamide]	36
Cn1cc(NC(=O)c2cnn3ccc(N[C@H]4CCCCC[C@H]4N)nc23)c(C(F)(F)F)n1 (relative stereo) [Example 33, 5-{[cis-2-aminocycloheptyl]amino}-N-[1-methyl-3-(trifluoromethyl)-1H-pyrazol-4-yl]pyrazolo[1,5-a]pyrimidine-3-carboxamide]	2
Cn1cc(NC(=O)c2cnn3ccc(N4CCC[C@H](O)C4)nc23)c(C(F)(F)F)n1 [Example 22, 5-[(3S)-3-hydroxypiperidin-1-yl]-N-[1-methyl-3-(trifluoromethyl)-1H-pyrazol-4-yl]pyrazolo[1,5-a]pyrimidine-3-carboxamide]	2
O=C(Nc1ccccc1Br)c1cnn2ccc(N[C@@H]3CCCC[C@@H]3O)nc12 [Example 195, N-(2-bromophenyl)-5-{[(1R,2S)-2-hydroxycyclohexyl]amino} pyrazolo[1,5-a]pyrimidine-3-carboxamide]	2930
N[C@@H]1[C@H](Nc2ccn3ncc(C(=O)Nc4ccsc4Cl)c3n2)CCCC1(F)F [Example 190, 5-{[(1R,2R)-2-amino-3,3-difluorocyclohexyl]amino}-N-(2-chlorothiophen-3-yl)pyrazolo[1,5-a]pyrimidine-3-carboxamide]	891
Cn1cc(NC(=O)c2cnn3ccc(N4C[C@H]5CNC[C@@H]4C5)nc23)c(C(F)(F)F)n1 (single isomer, unassigned) [Example 84, 5-[(1S,5R)- or (1R,5S)-3,6-diazabicyclo[3.2.1]oct-6-yl]-N-[1-methyl-3-(trifluoromethyl)-1H-pyrazol-4-yl]pyrazolo[1,5-a]pyrimidine-3-carboxamide]	158
Cn1cc(NC(=O)c2cnn3ccc(N[C@@H]4CCCCNC4)nc23)c(C(F)F)n1 (single isomer, unassigned) [Example 162, 5-[(3S)- or (3R)-azepan-3-ylamino]-N-[3-(difluoromethyl)-1-methyl-1H-pyrazol-4-yl]pyrazolo[1,5-a]pyrimidine-3-carboxamide trifluoroacetate]	0.2
Cn1cc(NC(=O)c2cnn3ccc(NC4CNCCC4F)nc23)c(C(F)F)n1 (single isomer, unassigned) [Example 237, N-[3-(difluoromethyl)-1-methyl-1H-pyrazol-4-yl]-5-[(3R or S, 4R or S-4-fluoropiperidin-3-yl)amino]pyrazolo[1,5-a]pyrimidine-3-carboxamide]	0.6
N#Cc1ccccc1NC(=O)c1cnn2ccc(N[C@@H]3CCCC(F)(F)[C@@H]3N)nc12 [Example 268, 5-{[(1R,2R)-2-amino-3,3-difluorocyclohexyl]amino}-N-(2-cyanophenyl)pyrazolo[1,5-a]pyrimidine-3-carboxamide]	268

Source: patent US10329294B2, “Pyrazolopyrimidine inhibitors of IRAK4 activity” (MERCK SHARP & DOHME CORP., priority 2015, dated 2019)
